For data set [1], the target named is T1, Leucine-rich repeat serine/threonine-protein kinase 2 (Homo sapiens, UniProt Q5S007). Briefly: Inhibition of wild type LRRK2 (unknown origin) using LRRKtide as substrate at 10 uM incubated for 60 mins in presence of ATP by ADP-Glo reagent based assay relative to control. A general note: ADP-Glo first removes unused ATP, then detects ADP through luciferase.

Data set [2] has as its target T2, Leucine-rich repeat serine/threonine-protein kinase 2 (Homo sapiens, UniProt Q5S007, G2019S). The data set can be described thus: Inhibition of LRRK2 G2019S mutant (unknown origin) using LRRKtide as substrate incubated for 60 mins in presence of ATP by ADP-Glo reagent based assay.
Data set [3] deals with T1, Leucine-rich repeat serine/threonine-protein kinase 2. Briefly: Inhibition of wild type LRRK2 (unknown origin) using LRRKtide as substrate incubated for 60 mins in presence of ATP by ADP-Glo reagent based assay.
Data set [4] concerns Leucine-rich repeat serine/threonine-protein kinase 2 (Homo sapiens), Q5S007 [G2019S]. Briefly: Inhibition of LRRK2 G2019S mutant (unknown origin) using LRRKtide as substrate at 10 uM incubated for 60 mins in presence of ATP by ADP-Glo reagent based assay relative to control.
Chain of Leucine-rich repeat serine/threonine-protein kinase 2 (Homo sapiens), Q5S007 [G2019S] (Q5S007 whole entry G2019S): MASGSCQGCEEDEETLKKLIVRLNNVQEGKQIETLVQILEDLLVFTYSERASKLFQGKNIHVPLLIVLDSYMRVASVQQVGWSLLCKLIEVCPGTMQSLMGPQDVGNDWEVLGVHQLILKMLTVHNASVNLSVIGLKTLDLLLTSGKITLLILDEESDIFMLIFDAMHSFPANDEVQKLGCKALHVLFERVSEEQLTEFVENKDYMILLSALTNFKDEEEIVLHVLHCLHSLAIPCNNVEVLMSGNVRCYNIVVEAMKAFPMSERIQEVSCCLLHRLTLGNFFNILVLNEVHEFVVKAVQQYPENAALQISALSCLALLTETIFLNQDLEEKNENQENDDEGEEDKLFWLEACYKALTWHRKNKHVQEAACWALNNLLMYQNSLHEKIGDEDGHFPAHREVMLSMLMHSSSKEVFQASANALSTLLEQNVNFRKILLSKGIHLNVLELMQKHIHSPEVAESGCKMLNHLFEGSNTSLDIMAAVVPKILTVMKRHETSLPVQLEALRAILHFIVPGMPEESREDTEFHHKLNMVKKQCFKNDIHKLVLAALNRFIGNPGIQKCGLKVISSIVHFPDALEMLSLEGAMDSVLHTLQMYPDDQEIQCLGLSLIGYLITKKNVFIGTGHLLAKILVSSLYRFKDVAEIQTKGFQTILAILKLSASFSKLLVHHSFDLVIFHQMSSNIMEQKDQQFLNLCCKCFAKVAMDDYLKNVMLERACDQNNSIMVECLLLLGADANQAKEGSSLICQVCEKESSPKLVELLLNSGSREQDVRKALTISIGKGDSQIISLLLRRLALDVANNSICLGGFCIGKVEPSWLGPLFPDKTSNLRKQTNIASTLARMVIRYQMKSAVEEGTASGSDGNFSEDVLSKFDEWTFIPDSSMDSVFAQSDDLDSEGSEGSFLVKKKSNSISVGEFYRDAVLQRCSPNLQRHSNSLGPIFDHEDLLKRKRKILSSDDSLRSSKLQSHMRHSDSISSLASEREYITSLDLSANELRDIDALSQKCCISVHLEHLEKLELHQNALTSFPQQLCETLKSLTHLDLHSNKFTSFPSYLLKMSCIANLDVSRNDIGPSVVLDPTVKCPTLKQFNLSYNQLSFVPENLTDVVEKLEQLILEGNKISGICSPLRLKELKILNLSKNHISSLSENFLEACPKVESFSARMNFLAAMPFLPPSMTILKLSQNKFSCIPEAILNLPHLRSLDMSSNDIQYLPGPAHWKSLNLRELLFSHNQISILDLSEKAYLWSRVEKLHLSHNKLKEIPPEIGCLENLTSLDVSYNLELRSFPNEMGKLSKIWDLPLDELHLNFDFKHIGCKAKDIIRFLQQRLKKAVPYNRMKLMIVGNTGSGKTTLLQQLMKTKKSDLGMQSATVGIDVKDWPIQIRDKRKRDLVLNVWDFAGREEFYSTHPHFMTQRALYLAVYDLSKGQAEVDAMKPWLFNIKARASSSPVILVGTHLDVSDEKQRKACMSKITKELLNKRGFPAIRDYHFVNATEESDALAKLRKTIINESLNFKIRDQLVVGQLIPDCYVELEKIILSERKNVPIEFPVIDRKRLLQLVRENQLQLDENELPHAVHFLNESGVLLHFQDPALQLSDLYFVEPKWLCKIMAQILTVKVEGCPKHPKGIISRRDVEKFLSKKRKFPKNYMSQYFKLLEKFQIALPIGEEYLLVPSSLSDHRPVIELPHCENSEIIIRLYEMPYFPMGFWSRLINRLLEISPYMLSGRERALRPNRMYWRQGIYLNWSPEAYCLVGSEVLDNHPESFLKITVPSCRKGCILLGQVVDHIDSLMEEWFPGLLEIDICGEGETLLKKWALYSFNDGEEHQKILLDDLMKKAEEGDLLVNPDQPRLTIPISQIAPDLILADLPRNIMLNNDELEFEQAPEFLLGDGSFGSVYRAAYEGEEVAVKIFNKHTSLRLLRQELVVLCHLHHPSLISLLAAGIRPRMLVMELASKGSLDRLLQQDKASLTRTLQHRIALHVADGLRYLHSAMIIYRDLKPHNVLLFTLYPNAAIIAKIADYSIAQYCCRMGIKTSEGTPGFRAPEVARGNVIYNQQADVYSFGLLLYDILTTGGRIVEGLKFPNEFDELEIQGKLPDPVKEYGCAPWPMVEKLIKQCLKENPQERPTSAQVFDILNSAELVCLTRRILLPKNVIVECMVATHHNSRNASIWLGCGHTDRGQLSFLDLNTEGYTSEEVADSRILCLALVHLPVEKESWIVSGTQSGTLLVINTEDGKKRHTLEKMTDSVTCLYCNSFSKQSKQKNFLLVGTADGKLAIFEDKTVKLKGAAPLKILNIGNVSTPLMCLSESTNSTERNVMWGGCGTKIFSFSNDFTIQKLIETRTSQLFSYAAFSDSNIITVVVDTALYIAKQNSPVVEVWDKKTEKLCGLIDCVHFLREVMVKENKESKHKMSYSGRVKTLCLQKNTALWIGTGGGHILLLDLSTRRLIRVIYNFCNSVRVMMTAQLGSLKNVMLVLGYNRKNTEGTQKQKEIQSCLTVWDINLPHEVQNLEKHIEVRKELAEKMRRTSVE
The test system is the same in data set [5]. The data set can be described thus: Inhibition of 3xFlag-Puro-tagged human LRRK2 G2019S mutant phosphorylation at Ser935 residue overexpressed in HEK293T cells at 10 uM incubated for 24 hrs by SDS-PAGE analysis relative to control. The data set is classed as cell-based.
The species named for data set [6] is Danio rerio. The data set can be described thus: Neuroprotective activity against 6-OHDA-induced neurotoxicity in wild type Zebrafish larvae AB assessed as increase in travel distance at high velocity at 12.5 to 50 uM treated with compound from 3 days post fertilization and measured after 4 days. To be noted: dose 12.5-50 µM, time 4.0 day. The data set is classed as functional, organism-based.

Data set [7] deals with T1, Leucine-rich repeat serine/threonine-protein kinase 2. The data set can be described thus: Inhibition of 3xFlag-Puro-tagged wildtype human LRRK2 phosphorylation at Ser935 residue overexpressed in HEK293T cells incubated for 24 hrs by SDS-PAGE analysis. The data set is classed as cell-based.
Data set [8] relates to Leucine-rich repeat serine/threonine-protein kinase 2 (Homo sapiens), Q5S007 [G2019S]. The data set can be described thus: (§1) Inhibition of 3xFlag-Puro-tagged human LRRK2 G2019S mutant phosphorylation at Ser935 residue overexpressed in HEK293T cells incubated for 24 hrs by SDS-PAGE analysis. Format: cell-based.
Data set [9] deals with T1, Leucine-rich repeat serine/threonine-protein kinase 2. The data set can be described thus: Inhibition of 3xFlag-Puro-tagged wildtype human LRRK2 phosphorylation at Ser935 residue overexpressed in HEK293T cells at 10 uM incubated for 24 hrs by SDS-PAGE analysis relative to control. The data set is classed as cell-based.
The species named for data set [10] is Danio rerio. The data set can be described thus: Neuroprotective activity against 6-OHDA-induced neurotoxicity in wild type Zebrafish AB larvae assessed as improvement in swimming behavior at 150 uM treated with compound from 3 days post fertilization and measured after 4 days. To be noted: time 4.0 day. Format: functional, organism-based.
The species named for data set [11] is Danio rerio. The data set can be described thus: Neuroprotective activity against 6-OHDA-induced neurotoxicity in wild type Zebrafish AB larvae assessed as increase in total swimming distance at 150 uM treated with compound from 3 days post fertilization and measured after 4 days. Format: functional, organism-based. To be noted: time 4.0 day.
Data set [12] is described as follows: Toxicity in wild type Zebrafish AB larvae assessed as effect on survival rate at 12.5 to 100 uM administered from 3 days post fertilization and measured after 96 hrs. The arrangement: species or system Danio rerio. To be noted: in vivo, dose 12.5-100 µM.
Data set [13] in a line: Toxicity in wild type Zebrafish AB larvae administered from 3 days post fertilization and measured after 96 hrs. More on the design: species or system Danio rerio. To be noted: in vivo.
The species named for data set [14] is Danio rerio. The data set can be described thus: Neuroprotective activity against 6-OHDA-induced neurotoxicity in wild type Zebrafish AB larvae assessed as increase in travel distance at high velocity at 12.5 uM treated with compound from 3 days post fertilization and measured after 4 days. The data set is classed as functional, organism-based. To be noted: time 4.0 day.

Data set [15] deals with T2, Leucine-rich repeat serine/threonine-protein kinase 2. The data set is described as §1. The data set is classed as cell-based.
The species entered for data set [16] is Danio rerio. The data set can be described thus: Neuroprotective activity against 6-OHDA-induced neurotoxicity in wild type Zebrafish AB larvae assessed as increase of total movement distance at 12.5 uM treated with compound from 3 days post fertilization and measured after 4 days. The data set is classed as functional, organism-based. To be noted: time 4.0 day.

The species entered for data set [17] is Danio rerio. Briefly: Neuroprotective activity against 6-OHDA-induced neurotoxicity in wild type Zebrafish AB larvae assessed as increase in travel distance at high velocity treated with compound from 3 days post fertilization and measured after 4 days. Format: functional, organism-based. To be noted: dose 12.5-50 µM, time 4.0 day.
For data set [18], the species on record is Danio rerio. The data set can be described thus: Neuroprotective activity against 6-OHDA-induced neurotoxicity in wild type Zebrafish AB larvae assessed as increase in travel distance at high velocity at 50 uM treated with compound from 3 days post fertilization and measured after 4 days. The data set is classed as functional, organism-based. To be noted: time 4.0 day.

Active and inactive are the calls of the source. No cut-off for these calls is given here.

T2 sequence (Q5S007 whole entry G2019S): as above
T1 sequence (Q5S007 whole entry): as the sequence (Q5S007 whole entry G2019S) above, with S2019G counted along it

What is called inhibition is the percentage by which the read-out fell short of the control. The term IC50 denotes the concentration needed to halve the response being measured. As for `CNC(=O)c1sc2ccc(NC(=O)c3n[nH]c4ccccc34)cc2c1OC`, the inhibition in data set [1] and in data set [4] was > 50% throughout. Besides, the concentration for half-maximal inhibition (IC50) in data set [2] was determined as 2.09 µM; in [3], 50.3 µM.

`Cn1cccc1-c1cc(C(=O)N/N=C2/C(=O)Nc3ccccc32)[nH]n1`: the inhibition in [1] and in data set [4] was > 50% throughout. The figures for the concentration for half-maximal inhibition (IC50) in data set [2] and in data set [3] were 3.63 µM and 39.4 µM, respectively.

In the case of `c1cc(OCCN2CCCCC2)cc(-c2n[nH]c3ccc(-c4nnc[nH]4)cc23)c1`, the inhibition in data set [5] was > 60%; in [7], “Dose-dependent-effect”; in data set [1], > 80%; in [4], > 80%; in data set [8], “Dose-dependent-effect”; in [9] it was > 80%. Besides, the result in the data set filed under Danio rerio [6] was inactive.

With `c1ccc2c(c1)ncn1nc(-c3cc(C4CC4)[nH]n3)nc21`, the inhibition in data set [1] and in [4] was > 50% in each case. In addition, the IC50 in data set [2] amounted to 5.59 µM; in data set [3] it was 7.15 µM.

As to `N[C@@H](Cc1ccc(O)c(O)c1)C(=O)O`, the outcome in the data set listed under Danio rerio [10] and in the data set filed under Danio rerio [11] was Active.

The term LC50 denotes the concentration lethal to half of the exposed cells or organisms. A lower LC50 goes with a more lethal substance. Consider `COc1cc(C(=O)N2CCC(N3CCN(C)CC3)CC2)ccc1Nc1ncc2c(n1)N(C)c1ccccc1C(=O)N2C`, for which the IC50 was 0.017 µM in data set [7], 0.0031 µM in data set [3] and 0.0221 µM in data set [15]. For the same compound, the inhibition result in data set [7] and in [8] was “Dose-dependent-effect” throughout. Moreover, the Activity entry in [12] is listed as “Toxic”. In data set [13], the LC50 at 96 h was > 100 µM. The outcome in the data set filed under Danio rerio [14] and in the data set filed under Danio rerio [16] was Active.

For `CC[C@](C)(Nc1ccnc(-c2c[nH]c3ncccc23)n1)C(=O)NCC(F)(F)F`, the inhibition in [5] is > 60%; in data set [7] it was “Dose-dependent-effect”; in [1], > 80%; in data set [4], > 80%; in [8] it was “Dose-dependent-effect”; in data set [9], > 80%. For the same compound, the Activity entry in the data set filed under Danio rerio [17] was “Dose-dependent-effect”; in data set [12] it was “Toxic”. For the same compound, the IC50 in [7] was 1.67 µM; in data set [2] it was 0.218 µM; in data set [3], 1.34 µM; in data set [15] it was 0.337 µM. Further, the outcome in the data set listed under Danio rerio [18] was Active. For the same compound, in data set [13], the LC50 at 96 h is > 100 µM.

For the compound `Fc1ccc(-c2n[nH]cc2/C=N\Nc2nc3ccccc3[nH]2)cc1`, the inhibition in [1] and in [4] was > 50% in each case. The IC50 in data set [2] was 4.92 µM; in data set [3], 3.12 µM.

Regarding `O=C(Nc1n[nH]c2ccccc12)c1cc(-c2cccnc2)n[nH]1`, the inhibition was > 60% in data set [5]; “Dose-dependent-effect” in data set [7]; > 80% in data set [1]; > 80% in data set [4]; “Dose-dependent-effect” in data set [8]; > 80% in data set [9]. In addition, the IC50 in data set [7] was 1.19 µM; in data set [2], 0.556 µM; in data set [3], 0.803 µM; in data set [15] it was 0.605 µM.

With `Cl.c1cc(OCCN2CCCCC2)cc(-c2n[nH]c3ccc(-c4nc[nH]n4)cc23)c1`, the 50% inhibitory concentration (IC50) came to 0.0271 µM in data set [7], 0.0224 µM in [2], 0.0096 µM in [3] and 0.0491 µM in [15]. Besides, the Activity result in [12] is listed as “Toxic”. In data set [13], the LC50 at 96 h is > 100 µM.

Source of the values: ChEMBL document CHEMBL6074630, “Discovery of potent LRRK2 inhibitors by ensemble virtual screening strategy and bioactivity evaluation” (Eur J Med Chem, 2024).
